# pKi: −log10 of the molar value.
# Target: T1, PI3Kδ (Homo sapiens, UniProt O00329)
# T1 construct: Full length p110 subunits of PI3k α, β and δ, N-terminally labeled with polyHis tag; polyHis (N); made in house; host or cells: Sf9 insect cells (baculovirus)
# Assay: PI3Kδ Alphascreen assay
# Assay type: biochemical
# T1 sequence (O00329 whole entry): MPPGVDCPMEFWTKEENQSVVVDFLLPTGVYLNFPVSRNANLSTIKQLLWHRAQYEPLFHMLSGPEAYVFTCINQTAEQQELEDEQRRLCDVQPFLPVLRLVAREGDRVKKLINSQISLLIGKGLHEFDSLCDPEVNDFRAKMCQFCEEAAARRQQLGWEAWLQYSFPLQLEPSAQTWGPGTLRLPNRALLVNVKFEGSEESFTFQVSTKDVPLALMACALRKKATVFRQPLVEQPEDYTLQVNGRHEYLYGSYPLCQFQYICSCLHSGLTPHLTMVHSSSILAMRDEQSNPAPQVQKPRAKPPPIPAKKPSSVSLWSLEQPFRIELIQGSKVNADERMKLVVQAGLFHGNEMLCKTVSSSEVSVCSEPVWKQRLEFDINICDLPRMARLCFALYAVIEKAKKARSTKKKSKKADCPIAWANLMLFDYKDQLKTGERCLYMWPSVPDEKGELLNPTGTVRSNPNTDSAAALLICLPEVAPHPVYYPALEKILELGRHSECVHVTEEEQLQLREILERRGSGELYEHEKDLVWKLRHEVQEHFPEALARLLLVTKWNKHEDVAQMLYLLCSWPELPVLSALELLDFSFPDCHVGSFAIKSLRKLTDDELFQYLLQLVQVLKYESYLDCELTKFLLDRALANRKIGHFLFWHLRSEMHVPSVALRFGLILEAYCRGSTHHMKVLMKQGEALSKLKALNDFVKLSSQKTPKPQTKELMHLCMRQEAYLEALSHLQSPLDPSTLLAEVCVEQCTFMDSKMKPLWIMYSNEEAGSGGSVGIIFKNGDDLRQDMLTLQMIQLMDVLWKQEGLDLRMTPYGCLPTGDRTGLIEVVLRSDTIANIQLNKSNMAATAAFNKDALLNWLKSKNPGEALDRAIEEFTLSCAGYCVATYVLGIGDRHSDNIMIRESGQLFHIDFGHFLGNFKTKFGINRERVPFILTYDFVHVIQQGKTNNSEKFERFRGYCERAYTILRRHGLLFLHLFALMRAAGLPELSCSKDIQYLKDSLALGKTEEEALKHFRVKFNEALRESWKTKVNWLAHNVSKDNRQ
# T1 sequence (P27986 whole entry partner): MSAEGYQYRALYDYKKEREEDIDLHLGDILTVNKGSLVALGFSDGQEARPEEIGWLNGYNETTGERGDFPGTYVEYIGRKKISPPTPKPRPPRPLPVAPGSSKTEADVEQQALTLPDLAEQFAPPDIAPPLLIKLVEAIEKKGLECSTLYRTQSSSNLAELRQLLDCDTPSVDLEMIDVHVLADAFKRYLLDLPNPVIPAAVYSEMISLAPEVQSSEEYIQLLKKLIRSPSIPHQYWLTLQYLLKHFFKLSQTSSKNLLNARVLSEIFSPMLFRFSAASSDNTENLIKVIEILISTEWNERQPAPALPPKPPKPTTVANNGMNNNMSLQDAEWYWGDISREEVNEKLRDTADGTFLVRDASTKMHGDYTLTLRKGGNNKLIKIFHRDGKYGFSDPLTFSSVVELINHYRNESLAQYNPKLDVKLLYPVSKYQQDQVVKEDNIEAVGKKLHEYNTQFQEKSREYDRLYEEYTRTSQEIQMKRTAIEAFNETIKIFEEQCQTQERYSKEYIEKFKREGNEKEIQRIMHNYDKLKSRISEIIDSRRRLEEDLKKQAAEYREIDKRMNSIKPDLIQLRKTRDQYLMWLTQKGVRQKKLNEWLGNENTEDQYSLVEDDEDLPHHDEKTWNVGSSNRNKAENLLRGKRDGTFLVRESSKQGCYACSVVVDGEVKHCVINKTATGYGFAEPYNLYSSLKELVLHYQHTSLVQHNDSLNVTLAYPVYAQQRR
row,pKi,SMILES
1,7.36,"Cc1c(-c2ccc(N3CCC(F)(F)CC3)nc2)nc2cc(F)cc(F)c2c1Nc1cc(N2CCOCC2)cnc1N1CCOCC1 [2-(6-(4,4-difluoro-1-piperidinyl)-3-pyridinyl)-N-(2,5-di-4-morpholinyl-3-pyridinyl)-5,7-difluoro-3-methyl-4-quinolinamine]"
2,7.55,"Cc1c(-c2ccc(N3CC[C@@H](N(C)C)C3)nc2)nc2cc(F)cc(F)c2c1Nc1cc(N2CCOCC2)cnc1N1CCOCC1 [2-(6-((3R)-3-(dimethylamino)-1-pyrrolidinyl)-3-pyridinyl)-N-(2,5-di-4-morpholinyl-3-pyridinyl)-5,7-difluoro-3-methyl-4-quinolinamine]"
3,7.32,"Cc1c(-c2ccc(OCC3CC3)nc2)nc2cc(F)cc(F)c2c1Nc1cc(N2CCOCC2)cnc1N1CCOCC1 [2-(6-(cyclopropylmethoxy)-3-pyridinyl)-N-(2,5-di-4-morpholinyl-3-pyridinyl)-5,7-difluoro-3-methyl-4-quinolinamine]"
4,6.74,"Cc1c(-c2ccc(N(C)C)nc2)nc2cc(F)cc(F)c2c1Nc1cncc(N2CCOCC2)c1 [2-(6-(dimethylamino)-3-pyridinyl)-5,7-difluoro-3-methyl-N-(5-(4-morpholinyl)-3-pyridinyl)-4-quinolinamine]"
5,7.61,"Cc1c(-c2ccc(N(C)C)nc2)nc2cc(F)cc(F)c2c1Nc1cc(N2CCOCC2)cnc1N1CCOCC1 [2-(6-(dimethylamino)-3-pyridinyl)-N-(2,5-di-4-morpholinyl-3-pyridinyl)-5,7-difluoro-3-methyl-4-quinolinamine]"
6,6.54,"CCOc1ccc(-c2nc3cc(F)cc(F)c3c(Nc3cncc(N4CCOCC4)c3)c2C)cn1 [2-(6-ethoxy-3-pyridinyl)-5,7-difluoro-3-methyl-N-(5-(4-morpholinyl)-3-pyridinyl)-4-quinolinamine]"
7,6.97,"Cc1c(N2CCN(C(=O)OCC(C)C)CC2)nc2cc(F)cc(F)c2c1Nc1cncc(N2CCOCC2)c1 [2-methylpropyl 4-(5,7-difluoro-3-methyl-4-((5-(4-morpholinyl)-3-pyridinyl)amino)-2-quinolinyl)-1-piperazinecarboxylate]"
8,7.76,"Cc1c(-c2cc(O)ccc2S(C)(=O)=O)nc2cc(F)ccc2c1Nc1cc(N2CCOCC2)cnc1N1CCOCC1 [3-(4-((2,5-di-4-morpholinyl-3-pyridinyl)amino)-7-fluoro-3-methyl-2-quinolinyl)-4-(methylsulfonyl)phenol]"
9,8.10,"Cc1c(-c2ccccn2)nc2cc(F)cc(F)c2c1Nc1cc(C#N)cc(N2CCOCC2)c1 [3-((5,7-difluoro-3-methyl-2-(2-pyridinyl)-4-quinolinyl)amino)-5-(4-morpholinyl)benzonitrile]"
10,7.24,Cc1ccnc(-c2nc3c(C#N)cccc3c(Nc3cncc(N4CCOCC4)c3)c2C)c1 [3-methyl-2-(4-methyl-2-pyridinyl)-4-((5-(4-morpholinyl)-3-pyridinyl)amino)-8-quinolinecarbonitrile]
11,6.15,"Cc1c(-c2ccccn2)nc2ncccc2c1Nc1cncc(N2CCOCC2)c1 [3-methyl-N-(5-(4-morpholinyl)-3-pyridinyl)-2-(2-pyridinyl)-1,8-naphthyridin-4-amine]"
12,8.26,"Cc1c(-c2ccccn2)nc2cc(F)cc(F)c2c1Nc1cc(N2CCOCC2)cnc1-c1ccc(C#N)cc1 [4-(3-((5,7-difluoro-3-methyl-2-(2-pyridinyl)-4-quinolinyl)-amino)-5-(4-morpholinyl)-2-pyridinyl)benzonitrile]"
13,8.62,"Cc1c(N2CCN(C(C)C)C(=O)C2)nc2cc(F)cc(F)c2c1Nc1cc(N2CCOCC2)cnc1N1CCOCC1 [4-(4-((2,5-di-4-morpholinyl-3-pyridinyl)amino)-5,7-difluoro-3-methyl-2-quinolinyl)-1-(1-methylethyl)-2-piperazinone]"
14,8.89,"CCN1CCN(c2nc3cc(F)cc(F)c3c(Nc3cc(N4CCOCC4)cnc3N3CCOCC3)c2C)CC1=O [4-(4-((2,5-di-4-morpholinyl-3-pyridinyl)amino)-5,7-difluoro-3-methyl-2-quinolinyl)-1-ethyl-2-piperazinone]"
15,8.74,"CCCN1CCN(c2nc3cc(F)cc(F)c3c(Nc3cc(N4CCOCC4)cnc3N3CCOCC3)c2C)CC1=O [4-(4-((2,5-di-4-morpholinyl-3-pyridinyl)amino)-5,7-difluoro-3-methyl-2-quinolinyl)-1-propyl-2-piperazinone]"
16,7.09,"Cc1c(N2CCN(C(=O)N(C)C)CC2)nc2cc(F)cc(F)c2c1N(C(=O)N(C)C)c1cncc(N2CCOCC2)c1 [4-(4-((dimethylcarbamoyl)(5-(4-morpholinyl)-3-pyridinyl)-amino)-5,7-difluoro-3-methyl-2-quinolinyl)-N,N-dimethyl-1-piperazinecarboxamide]"
17,7.62,"Cc1c(N2CCN(C(C)C)C(=O)C2)nc2cc(F)cc(F)c2c1Nc1cncc(N2CCOCC2)c1 [4-(5,7-difluoro-3-methyl-4-((5-(4-morpholinyl)-3-pyridinyl)-amino)-2-quinolinyl)-1-(1-methylethyl)-2-piperazinone]"

row,pKi,SMILES
1,7.88,"CCN1CCN(c2nc3cc(F)cc(F)c3c(Nc3cncc(N4CCOCC4)c3)c2C)CC1=O [4-(5,7-difluoro-3-methyl-4-((5-(4-morpholinyl)-3-pyridinyl)-amino)-2-quinolinyl)-1-ethyl-2-piperazinone]"
2,8.04,"CCCN1CCN(c2nc3cc(F)cc(F)c3c(Nc3cncc(N4CCOCC4)c3)c2C)CC1=O [4-(5,7-difluoro-3-methyl-4-((5-(4-morpholinyl)-3-pyridinyl)-amino)-2-quinolinyl)-1-propyl-2-piperazinone]"
3,7.14,"Cc1c(N2CCN(C(=O)N(C)C)CC2)nc2cc(F)cc(F)c2c1Nc1cncc(N2CCOCC2)c1 [4-(5,7-difluoro-3-methyl-4-((5-(4-morpholinyl)-3-pyridinyl)-amino)-2-quinolinyl)-N,N-dimethyl-1-piperazinecarboxamide]"
4,7.30,"Cc1c(N2CCN(C(=O)NC(C)C)CC2)nc2cc(F)cc(F)c2c1Nc1cncc(N2CCOCC2)c1 [4-(5,7-difluoro-3-methyl-4-((5-(4-morpholinyl)-3-pyridinyl)-amino)-2-quinolinyl)-N-(1-methylethyl)-1-piperazinecarboxamide]"
5,7.61,"CCNC(=O)N1CCN(c2nc3cc(F)cc(F)c3c(Nc3cncc(N4CCOCC4)c3)c2C)CC1 [4-(5,7-difluoro-3-methyl-4-((5-(4-morpholinyl)-3-pyridinyl)-amino)-2-quinolinyl)-N-ethyl-1-piperazinecarboxamide]"
6,7.78,"CNC(=O)N1CCN(c2nc3cc(F)cc(F)c3c(Nc3cncc(N4CCOCC4)c3)c2C)CC1 [4-(5,7-difluoro-3-methyl-4-((5-(4-morpholinyl)-3-pyridinyl)-amino)-2-quinolinyl)-N-methyl-1-piperazinecarboxamide]"
7,7.26,"Cc1c(-c2ccccn2)nc2c(C#N)cccc2c1Nc1cc(N2CCOCC2)cnc1N1CCOCC1 [4-((2,5-di-4-morpholinyl-3-pyridinyl)amino)-3-methyl-2-(2-pyridinyl)-8-quinolinecarbonitrile]"
8,6.32,"Cc1c(-c2ccccn2)nc2cc(F)cc(F)c2c1Nc1ccc(C#N)c(N2CCOCC2)c1 [4-((5,7-difluoro-3-methyl-2-(2-pyridinyl)-4-quinolinyl)amino)-2-(4-morpholinyl)benzonitrile]"
9,8.10,"COc1cncc(-c2cc(C#N)c(N3CCOCC3)cc2Nc2c(C)c(-c3ccccn3)nc3cc(F)cc(F)c23)c1 [4-((5,7-difluoro-3-methyl-2-(2-pyridinyl)-4-quinolinyl)amino)-5-(5-methoxy-3-pyridinyl)-2-(4-morpholinyl)benzonitrile]"
10,6.63,"COc1cncc(-c2ncc(N3CCOCC3)cc2Nc2c(C)c(-c3cc(C)ccn3)nc3c(C#N)cccc23)c1 [4-((5′-methoxy-5-(4-morpholinyl)-2,3′-bipyridin-3-yl)amino)-3-methyl-2-(4-methyl-2-pyridinyl)-8-quinolinecarbonitrile]"
11,6.82,"COc1cc(-c2nc3cc(F)cc(F)c3c(Nc3cncc(N4CCOCC4)c3)c2C)ccn1 [5,7-difluoro-2-(2-methoxy-4-pyridinyl)-3-methyl-N-(5-(4-morpholinyl)-3-pyridinyl)-4-quinolinamine]"
12,7.26,"Cc1c(N2CCN(C(=O)c3ncc[nH]3)CC2)nc2cc(F)cc(F)c2c1Nc1cncc(N2CCOCC2)c1 [5,7-difluoro-2-(4-(1H-imidazol-2-ylcarbonyl)-1-piperazinyl)-3-methyl-N-(5-(4-morpholinyl)-3-pyridinyl)-4-quinolinamine]"
13,7.18,"Cc1c(N2CCN(S(=O)(=O)c3ccccc3F)CC2)nc2cc(F)cc(F)c2c1Nc1cncc(N2CCOCC2)c1 [5,7-difluoro-2-(4-((2-fluorophenyl)sulfonyl)-1-piperazinyl)-3-methyl-N-(5-(4-morpholinyl)-3-pyridinyl)-4-quinolinamine]"
14,7.21,"Cc1c(N2CCN(S(=O)(=O)c3cccc(F)c3)CC2)nc2cc(F)cc(F)c2c1Nc1cncc(N2CCOCC2)c1 [5,7-difluoro-2-(4-((3-fluorophenyl)sulfonyl)-1-piperazinyl)-3-methyl-N-(5-(4-morpholinyl)-3-pyridinyl)-4-quinolinamine]"
15,8.54,"Cc1c(-c2cc(F)ccc2S(C)(=O)=O)nc2cc(F)cc(F)c2c1Nc1cncc(N2CCOCC2)c1 [5,7-difluoro-2-(5-fluoro-2-(methylsulfonyl)phenyl)-3-methyl-N-(5-(4-morpholinyl)-3-pyridinyl)-4-quinolinamine]"
16,7.43,"COc1cncc(-c2nc3cc(F)cc(F)c3c(Nc3cncc(N4CCOCC4)c3)c2C)c1 [5,7-difluoro-2-(5-methoxy-3-pyridinyl)-3-methyl-N-(5-(4-morpholinyl)-3-pyridinyl)-4-quinolinamine]"
17,8.41,"Cc1c(-c2ccccc2[S@+](C)[O-])nc2cc(F)cc(F)c2c1Nc1cncc(N2CCOCC2)c1 [5,7-difluoro-3-methyl-2-(2-((S)-methylsulfinyl)phenyl)-N-(5-(4-morpholinyl)-3-pyridinyl)-4-quinolinamine]"

row,SMILES,pKi
1,"Cc1c(-c2ccccn2)nc2cc(F)cc(F)c2c1Nc1cc(N2CCOCC2)cnc1-c1ccc(O)cc1 [4-(3-((5,7-difluoro-3-methyl-2-(2-pyridinyl)-4-quinolinyl)-amino)-5-(4-morpholinyl)-2-pyridinyl)phenol]",9.55
